# According to patent publication US8735397B2, “Method for treating schizophrenia and related diseases” (Vanderbilt University, priority 2010, dated 2014):
# “Also recorded” adds a separate entry of the source. Counter-ions that a name gives are not always drawn.
# Assays:
# [1] = system: PCP-induced NOR deficits in sub-chronic PCP treated rats; assay: Novel object recognition (NOR) test after subchronic PCP treatment; assay type: in vivo, Female Long-Evans rats; settings: for Acquisition (sec) Left, exploration time / Acquisition (sec) Right, exploration time / Retention (sec) Familiar, exploration time / Retention (sec) Novel, exploration time: mean±SEM; for Effective dose for reversing PCP-induced NOR deficits / Sub-effective dose in PCP-induced NOR deficit: single agent, acute administration after subchronic PCP
# Protocol: Female Long-Evans rats received vehicle or PCP (2 mg/kg, i.p.) twice daily for 7 days, followed by a 7-day washout period (n=6-9/group). Phencyclidine (PCP) which is known to induce schizophrenia-like symptoms in human normal subjects and to exacerbate symptoms in patients with schizophrenia was dissolved in distilled water and administered in a volume of 1 ml/kg.
# On the test day, in the first set of experiments, lurasidone HCl (0.03 and 0.1 mg/kg; produced by Dainippon Sumitomo Pharma Co., Ltd.), clozapine (0.3 mg/kg), LY379268 (1 mg/kg; Tocris Bioscience) alone, or haloperidol (0.1 mg/kg), pimavanserin (3 mg/kg), lurasidone HCl (0.03 mg/kg), clozapine (0.1 mg/kg) in combination with LY379268 (1 mg/kg) were administered intraperitoneally in a volume of 1 ml/kg, 30 min before the novel object recognition (NOR) test. In the second set of experiments, LY404039 (1 mg/kg; produced by Dainippon Sumitomo Pharma Co., Ltd.) alone was orally administered in a volume of 4 ml/kg 60 min before the novel object recognition (NOR) test. For combination with lurasidone HCl, LY404039 (1 mg/kg, p.o.) and lurasidone HCl (0.03 mg/kg, i.p.) were administered 60 min and 30 min before the novel object recognition (NOR) test, respectively. In the third set of experiments, BINA (30 mg/kg; produced by Dainippon Sumitomo Pharma Co., Ltd.) alone or BINA (30 mg/kg) in combination with lurasidone HCl (0.03 mg/kg) was administered intraperitoneally in a volume of 1 ml/kg 30 min before the novel object recognition (NOR) test.
# Haloperidol, pimavanserin, and LY404039 were dissolved in distilled water. Lurasidone HCl was dissolved 0.5% methylcellulose, 0.2% Tween 80. Clozapine was dissolved in a small amount of 0.1 M phosphoric acid, and the pH was adjusted to 6 to 7 with 0.1 N NaOH. LY379268 was dissolved in saline. BINA was dissolved in 10% Tween 80, 10% 1N NaOH, and the pH was adjusted to 7 with 1N HCl.
# The object recognition test was performed in an open field comprising a square box made of Plexiglas (52/52/31 cm) placed 37 cm above the floor on an immoveable stand. The floor of the box was white with black gridlines forming nine identical squares on it. All other walls were black. A video camera connected to a video recorder and monitor was positioned above the box. The objects used for the test consisting of four heavy pyramidal structures made of metal or Perspex that could not be displaced by the animals. Care was taken to ensure that these objects were not of any natural significance to the rats.
# Testing was carried out according to a previously validated method (Grayson et al., Behay. Brain Res. 2007 184, 31-38; Snigdha et al., J. Pharmacol. Exp. Ther., 2010 332 (2), 622-31). The rats were familiarized to the test environment and NOR arena before the test day. Habituation consisting of placing the subjects in the empty NOR arena for 1 h, on the day before the test day (day 1). Before behavioral testing on day 2, rats were given a further 3-min habituation. For each experimental trial after the 3-min habituation period, the rats were given two 3-min trials (T1 and T2), separated by a 1-min intertrial interval in the home cage during which the objects were changed and the arena was cleaned. In Trial 1 (T1) or the acquisition trial, the animals were allowed to explore two identical objects (A1 and A2) for 3 min. In the second trial (T2) or the retention trial, the animals explored a familiar object (A) from T1 and a novel object (B) for 3 min. The familiar object presented during T2 was a duplicate of the object presented in T1 to avoid any olfactory trails. Each rat was tested three or four times in the NOR paradigm. To reduce carryover effects, a 7-day washout period was given between each of the test sessions. The criterion for continuing to test the rats was based on mean total exploration time in the acquisition or retention phase 5 seconds. […] This happened rarely and not enough to affect the ability to use the remaining animals for analysis. […]
# dopamine D2 receptor = dopamine D2 receptor (Homo sapiens, UniProt P14416); settings: cited from earlier work
# [2] = target: T1, serotonin 5-HT1A receptor (Homo sapiens, UniProt P08908); settings: cited from earlier work
# T1 sequence (P08908 1-422): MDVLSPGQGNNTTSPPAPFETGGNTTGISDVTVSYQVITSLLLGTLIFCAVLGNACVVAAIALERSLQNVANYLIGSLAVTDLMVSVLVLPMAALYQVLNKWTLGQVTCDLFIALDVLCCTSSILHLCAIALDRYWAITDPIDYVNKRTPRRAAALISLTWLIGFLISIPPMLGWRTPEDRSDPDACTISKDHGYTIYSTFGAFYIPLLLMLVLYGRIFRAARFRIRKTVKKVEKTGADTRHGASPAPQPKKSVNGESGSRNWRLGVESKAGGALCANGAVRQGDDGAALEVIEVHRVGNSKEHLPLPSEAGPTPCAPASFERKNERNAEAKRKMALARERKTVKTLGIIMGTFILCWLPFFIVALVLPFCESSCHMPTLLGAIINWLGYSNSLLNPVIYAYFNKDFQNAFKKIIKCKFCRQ
# [3] = target: serotonin 5-HT2A receptor (Homo sapiens, UniProt P28223); settings: cited from earlier work
# serotonin 5-HT7 receptor = serotonin 5-HT7 receptor (Homo sapiens, UniProt P34969); settings: cited from earlier work
# [4] = target: T2, noradrenaline α2C receptor (Homo sapiens, UniProt P18825); settings: cited from earlier work
# T2 sequence (P18825 1-462): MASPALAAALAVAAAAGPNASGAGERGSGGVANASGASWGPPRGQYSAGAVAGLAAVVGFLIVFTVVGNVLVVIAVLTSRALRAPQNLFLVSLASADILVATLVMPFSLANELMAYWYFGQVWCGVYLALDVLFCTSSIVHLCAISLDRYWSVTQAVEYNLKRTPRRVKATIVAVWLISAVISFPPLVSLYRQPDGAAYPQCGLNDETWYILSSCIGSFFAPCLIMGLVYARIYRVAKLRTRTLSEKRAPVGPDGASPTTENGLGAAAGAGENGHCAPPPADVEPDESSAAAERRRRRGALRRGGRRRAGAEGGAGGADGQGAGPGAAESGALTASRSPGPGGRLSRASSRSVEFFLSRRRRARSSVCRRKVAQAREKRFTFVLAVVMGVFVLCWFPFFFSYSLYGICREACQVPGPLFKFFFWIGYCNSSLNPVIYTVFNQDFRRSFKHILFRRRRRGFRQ
# histamine H1 receptor = histamine H1 receptor (Homo sapiens, UniProt P35367); settings: cited from earlier work
# muscarinic M1 receptor = target: T3, muscarinic M1 receptor (Homo sapiens, UniProt P11229); settings: cited from earlier work
# T3 sequence (P11229 1-460): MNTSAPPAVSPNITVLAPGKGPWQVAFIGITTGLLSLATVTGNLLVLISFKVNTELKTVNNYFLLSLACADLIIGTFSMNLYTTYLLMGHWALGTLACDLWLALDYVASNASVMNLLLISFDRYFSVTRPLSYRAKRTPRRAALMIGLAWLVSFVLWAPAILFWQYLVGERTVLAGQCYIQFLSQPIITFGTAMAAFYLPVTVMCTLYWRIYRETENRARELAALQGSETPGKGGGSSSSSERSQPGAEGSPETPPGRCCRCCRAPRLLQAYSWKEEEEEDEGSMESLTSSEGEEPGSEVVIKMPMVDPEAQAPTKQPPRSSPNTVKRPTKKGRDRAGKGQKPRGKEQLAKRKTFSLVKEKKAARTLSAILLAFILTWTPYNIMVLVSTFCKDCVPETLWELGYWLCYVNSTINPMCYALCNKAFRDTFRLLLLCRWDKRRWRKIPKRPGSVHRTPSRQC
# [5] = PCP + BINA 30 mg/kg i.p. 30 min before NOR, n=7 to 9
# [6] = PCP + LY379268 1 mg/kg i.p. 30 min before NOR, n=6 to 8
# [7] = PCP + lurasidone HCl 0.03 mg/kg i.p. 30 min before NOR, n=7 to 8
# [8] = PCP + lurasidone HCl 0.1 mg/kg i.p. 30 min before NOR, n=7 to 8
# [9] = PCP + clozapine 0.1 mg/kg, n=6 to 8
# [10] = PCP + clozapine 0.3 mg/kg i.p. 30 min before NOR, n=6 to 8
# [11] = PCP + LY404039 1 mg/kg p.o. 60 min before NOR, n=7 to 8
# Sequence of histamine H1 receptor (P35367 whole entry): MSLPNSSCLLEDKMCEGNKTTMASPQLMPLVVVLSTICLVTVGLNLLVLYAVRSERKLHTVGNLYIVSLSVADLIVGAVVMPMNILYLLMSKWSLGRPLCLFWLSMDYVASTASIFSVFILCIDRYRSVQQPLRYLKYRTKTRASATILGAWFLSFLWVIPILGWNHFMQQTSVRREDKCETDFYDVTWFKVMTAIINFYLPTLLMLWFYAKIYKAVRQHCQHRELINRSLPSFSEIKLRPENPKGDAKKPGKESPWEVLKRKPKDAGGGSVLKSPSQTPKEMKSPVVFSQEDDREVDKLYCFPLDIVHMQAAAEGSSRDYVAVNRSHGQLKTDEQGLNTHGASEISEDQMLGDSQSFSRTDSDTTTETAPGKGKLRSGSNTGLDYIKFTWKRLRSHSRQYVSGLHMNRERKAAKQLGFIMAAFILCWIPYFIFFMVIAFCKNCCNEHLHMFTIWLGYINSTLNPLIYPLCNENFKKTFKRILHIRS
# Sequence of dopamine D2 receptor (P14416 whole entry): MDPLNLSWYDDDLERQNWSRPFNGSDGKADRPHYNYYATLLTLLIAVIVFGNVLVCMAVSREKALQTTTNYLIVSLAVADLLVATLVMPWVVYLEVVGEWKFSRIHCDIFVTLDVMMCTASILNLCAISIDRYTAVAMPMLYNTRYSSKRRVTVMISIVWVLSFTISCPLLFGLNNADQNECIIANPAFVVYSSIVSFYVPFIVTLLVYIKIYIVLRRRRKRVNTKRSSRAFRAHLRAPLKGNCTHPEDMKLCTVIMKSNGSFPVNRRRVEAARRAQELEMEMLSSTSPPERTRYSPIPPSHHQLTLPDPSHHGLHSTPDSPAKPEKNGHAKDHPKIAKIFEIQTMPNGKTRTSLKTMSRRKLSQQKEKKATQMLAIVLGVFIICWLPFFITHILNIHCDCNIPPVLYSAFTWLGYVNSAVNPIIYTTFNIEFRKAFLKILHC
# Sequence of serotonin 5-HT2A receptor (P28223 whole entry): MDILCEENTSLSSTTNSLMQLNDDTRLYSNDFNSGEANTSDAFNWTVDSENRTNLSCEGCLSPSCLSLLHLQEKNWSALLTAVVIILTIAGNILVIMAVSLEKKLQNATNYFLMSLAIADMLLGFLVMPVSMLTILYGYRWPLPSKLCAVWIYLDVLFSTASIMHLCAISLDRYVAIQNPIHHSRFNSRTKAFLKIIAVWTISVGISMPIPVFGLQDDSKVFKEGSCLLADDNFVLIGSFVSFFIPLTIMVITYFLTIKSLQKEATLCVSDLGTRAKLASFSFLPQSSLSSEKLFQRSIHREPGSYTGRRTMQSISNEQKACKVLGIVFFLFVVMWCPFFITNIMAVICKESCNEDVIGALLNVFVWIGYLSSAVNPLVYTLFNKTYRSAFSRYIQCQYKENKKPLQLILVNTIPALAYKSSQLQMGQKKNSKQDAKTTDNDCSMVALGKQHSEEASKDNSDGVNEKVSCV
# Sequence of serotonin 5-HT7 receptor (P34969 whole entry): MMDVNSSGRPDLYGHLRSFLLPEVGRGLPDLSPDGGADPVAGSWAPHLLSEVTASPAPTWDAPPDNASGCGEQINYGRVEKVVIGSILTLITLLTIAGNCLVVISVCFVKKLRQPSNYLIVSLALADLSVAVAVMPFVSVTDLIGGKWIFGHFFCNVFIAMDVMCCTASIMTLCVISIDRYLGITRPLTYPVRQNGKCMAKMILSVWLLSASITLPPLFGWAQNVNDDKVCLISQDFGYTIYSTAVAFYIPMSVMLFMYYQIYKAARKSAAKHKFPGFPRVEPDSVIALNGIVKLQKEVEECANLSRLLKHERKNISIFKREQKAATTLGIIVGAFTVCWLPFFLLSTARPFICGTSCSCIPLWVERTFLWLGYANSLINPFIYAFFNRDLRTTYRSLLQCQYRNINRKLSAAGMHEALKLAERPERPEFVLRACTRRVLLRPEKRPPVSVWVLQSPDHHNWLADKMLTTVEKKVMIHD
compound,measurement,setting,value
"Cc1c(OCc2cccc(-c3ccc(C(=O)O)cc3)c2)cc2c(c1C)C(=O)C(C1CCCC1)C2 (stereo not shown) [BINA, 3′-(2-Cyclopentyl-6,7-dimethyl-1-oxoindan-5-yloxy-methyl)biphenyl-4-carboxylic acid]",Effect on PCP-induced NOR deficits,[1]; BINA alone 30 mg/kg i.p.,did not attenuate the PCP-induced NOR deficits; also recorded: did not improve the PCP-induced deficit in NOR
same,"Acquisition (sec) Left, exploration time",[1]; [5],9.8 ± 1.5 s
same,"Acquisition (sec) Right, exploration time",[1]; [5],10.7 ± 2.0 s
same,"Retention (sec) Familiar, exploration time",[1]; [5],6.0 ± 1.1 s
same,"Retention (sec) Novel, exploration time",[1]; [5],7.9 ± 1.0 s
"N[C@@]1(C(=O)O)CO[C@H]2[C@H](C(=O)O)[C@H]21 [LY379268, (1R,4R,5S,6R)-4-Amino-2-oxabicyclo[3.1.0]hexane-4,6-dicarboxylic acid]",Effect on PCP-induced NOR deficits,[1]; LY379268 alone 1 mg/kg i.p.,did not attenuate the PCP-induced NOR deficits; also recorded: did not attenuate the PCP-induced deficit in NOR
same,"Acquisition (sec) Left, exploration time",[1]; [6],12.4 ± 2.6 s
same,"Acquisition (sec) Right, exploration time",[1]; [6],11.0 ± 4.2 s
same,"Retention (sec) Familiar, exploration time",[1]; [6],8.3 ± 1.5 s
same,"Retention (sec) Novel, exploration time",[1]; [6],9.7 ± 2.2 s
O=C1[C@@H]2[C@H]3CC[C@H](C3)[C@@H]2C(=O)N1C[C@@H]1CCCC[C@H]1CN1CCN(c2nsc3ccccc23)CC1 [Lurasidone HCl],"Acquisition (sec) Left, exploration time",[1]; [7],11.4 ± 3.1 s
same,"Acquisition (sec) Right, exploration time",[1]; [7],8.3 ± 1.8 s
same,"Retention (sec) Familiar, exploration time",[1]; [7],7.6 ± 2.3 s
same,"Retention (sec) Novel, exploration time",[1]; [7],8.9 ± 1.7 s
same,"Acquisition (sec) Left, exploration time",[1]; [8],10.9 ± 1.3 s
same,"Acquisition (sec) Right, exploration time",[1]; [8],10.9 ± 0.8 s
same,"Retention (sec) Familiar, exploration time",[1]; [8],4.6 ± 1.0 s
same,"Retention (sec) Novel, exploration time",[1]; [8],11.4 ± 2.2 s
same,Effective dose for reversing PCP-induced NOR deficits,[1],0.1 mg/kg
CN1CCN(C2=Nc3cc(Cl)ccc3Nc3ccccc32)CC1 [Clozapine],"Acquisition (sec) Left, exploration time",[1]; [9],12.7 ± 3.5 s
same,"Acquisition (sec) Right, exploration time",[1]; [9],10.6 ± 2.1 s
same,"Retention (sec) Familiar, exploration time",[1]; [9],9.1 ± 1.9 s
same,"Retention (sec) Novel, exploration time",[1]; [9],11.0 ± 2.8 s
same,"Acquisition (sec) Left, exploration time",[1]; [10],13.1 ± 2.9 s
same,"Acquisition (sec) Right, exploration time",[1]; [10],11.4 ± 2.5 s
same,"Retention (sec) Familiar, exploration time",[1]; [10],7.3 ± 1.7 s
same,"Retention (sec) Novel, exploration time",[1]; [10],16.3 ± 2.8 s
same,Effective dose for reversing PCP-induced NOR deficits,[1],0.3 mg/kg
same,Sub-effective dose in PCP-induced NOR deficit,[1],0.1 mg/kg
"N[C@@]1(C(=O)O)CS(=O)(=O)[C@H]2[C@H](C(=O)O)[C@H]21 [LY404039, (−)-(1R,4S,5S,6S)-4-Amino-2-thiabicyclo[3.1.0]hexane-4,6-dicarboxylic acid S,S-dioxide]",Effect on PCP-induced NOR deficits,[1]; LY404039 alone 1 mg/kg p.o.,did not attenuate the PCP-induced NOR deficits; also recorded: did not improve the PCP-induced deficit in NOR
same,"Acquisition (sec) Left, exploration time",[1]; [11],9.3 ± 0.8 s
same,"Acquisition (sec) Right, exploration time",[1]; [11],8.4 ± 0.9 s
same,"Retention (sec) Familiar, exploration time",[1]; [11],5.5 ± 1.1 s
same,"Retention (sec) Novel, exploration time",[1]; [11],7.3 ± 0.8 s
"O=C1[C@@H]2[C@H]3CC[C@H](C3)[C@@H]2C(=O)N1C[C@@H]1CCCC[C@H]1CN1CCN(c2nsc3ccccc23)CC1 [Lurasidone, (3aR,4S,7R,7aS)-2-{(1R,2R)-2-[4-(1,2-benzisothiazol-3-yl)piperazin-1-ylmethyl]cyclo-hexylmethyl}hexahydro-4,7-methano-2H-isoindole-1,3-dione]",Effective dose for reversing PCP-induced NOR deficits,[1],0.1 mg/kg
same,Sub-effective dose in PCP-induced NOR deficit,[1],0.03 mg/kg
same,Affinity for dopamine D2 receptors,dopamine D2 receptor,high affinity
same,Affinity for serotonin 5-HT1A receptors,[2],high affinity
same,Affinity for serotonin 5-HT2A receptors,[3],high affinity
same,Affinity for serotonin 5-HT7 receptors,serotonin 5-HT7 receptor,high affinity
same,Affinity for noradrenaline α2C receptors,[4],high affinity
same,Affinity for histamine H1 receptors,histamine H1 receptor,minimal to no affinity
same,Affinity for muscarinic M1 receptors,muscarinic M1 receptor,minimal to no affinity
